# According to paper PMC6036174 (Frontiers in Microbiology, 2018):
# Read-outs that look alike come from different tables or passages of the source.
# Experiments:
# [1] = tested on: VERO (ATCC CCL-81) normal epithelial cells; assay: VERO cell cytotoxicity (resazurin); conditions: 24 h incubation, called CC50 in methods; for IC50: read-out: Cytotoxicity IC50 VERO cells
# [2] = tested on: A549 lung epithelial cells; assay: A549 cell cytotoxicity (MTT); conditions: 48 h incubation, MTT, called CC50 in methods; for IC50: read-out: Cytotoxicity IC50 A549 cells
# [3] = tested on: M. tuberculosis CDC1551; assay: broth tube MIC (visible pellet) against M. tuberculosis CDC1551; format: cell-based, Mycobacterium tuberculosis; conditions: for MIC100 / MIC / fold increase in potency compared to INH: M. tuberculosis CDC1551; for MIC100 / MIC: 14 days 37°C, no visible pellet; for MIC: read-out: MIC100
# [4] = tested on: M. tuberculosis H37Rv (ATCC 27294); assay: resazurin microtiter assay, MIC against M. tuberculosis H37Rv; format: cell-based, Mycobacterium tuberculosis; conditions: 7 days 37°C, 90% inhibition of growth
# [5] = tested on: G. mellonella larvae; assay: in vivo toxicity in Galleria mellonella larvae; conditions: for % Mortality: 72 h post-injection; for In vivo G. mellonella tolerance order in μmol / In vivo G. mellonella tolerance order in μmol (Normalized against no. of phens): rank; for In vivo G. mellonella tolerance order in μmol: 1st = best tolerated, from Table 2; for In vivo G. mellonella tolerance order in μmol (Normalized against no. of phens): normalized with respect to phen content
# Protocol: G. mellonella larvae in the 6th developmental stage were used to determine the in vivo cytotoxicity of the test complexes (Kellett et al., [2011]; Desbois and Coote, [2012]; McCann et al., [2012]). Thirty healthy larvae, each weighing between 0.2 and 0.4 g and with no cuticle discolouration, were used for each experiment. Fresh solutions of the test complexes were prepared immediately prior to testing under sterile conditions. Test compounds (0.05 g) were dissolved in DMSO (1 mL) and added to sterile water (9 mL) to give a stock solution/suspension (5,000 μg/mL). Test solutions/suspensions were prepared from the corresponding stock solution using Millipore water only to dilute to the desired concentration and each compound was screened across the concentration range of 5,000–100 mg/L. Test solutions/suspensions (20 μL) were administered to the larvae by injection directly into the haemocoel through the last pro-leg. The base of the pro-leg can be opened by applying gentle pressure to the sides of the larvae and this aperture will re-seal after removal of the syringe without leaving a scar. Larvae were placed in sterile Petri dishes and incubated at 30°C for 72 h. The survival of the larvae was monitored every 24 h. Death was assessed by the lack of movement in response to stimulus together with discolouration of the cuticle. Three controls were employed in all assays. The first consisted of untouched larvae maintained at the same temperature as the test larvae. The second was larvae with the pro-leg pierced with an inoculation needle but no solution injected. The third control was larvae that were inoculated with 20 μL of sterile water.
# [6] = solubility in water (descriptive); format: physicochemical
# [7] = 40 μg per larvae (133.33 mg/kg)
# [8] = 100 μg per larvae (333.33 mg/kg)
Compound,Cytotoxicity IC50 VERO cells [1] [µg/mL],Cytotoxicity IC50 A549 cells [2] [µg/mL],IC50 [1] [µM],IC50 [2] [µM],MIC100 [3] [µg/mL],MIC [3] [µM],MIC90 [4] [µg/mL],MIC90 ([4]; read-out: MIC90) [µM],% Mortality ([5]; 10 μg per larvae (33.33 mg/kg)) [%],% Mortality ([5]; 20 μg per larvae (66.67 mg/kg)) [%],"% Mortality [5, 7] [%]","% Mortality [5, 8] [%]",In vivo G. mellonella tolerance order in μmol [5],In vivo G. mellonella tolerance order in μmol (Normalized against no. of phens) [5],solubility in water [6],fold increase in potency compared to INH [3] [fold],fold increase in inhibitory activity against CDC1551 relative to H37Rv ([3]; MIC CDC1551 vs H37Rv) [fold]
"O.O.[Cl-].[Cl-].[Mn+2] [MnCl2·2H2O, reference compound]",92.1,153.4,,,,,,,,,,,,,,,
"[Cl-].[Cl-].[Mn+2] [MnCl2·2H2O, reference compound]",,,569,947,,,,,,,,,,,,,
"O.O.O=C([O-])c1ccccc1C(=O)[O-].[Mn+2].c1cnc2c(c1)ccc1cccnc12 [compound 5, [Mn(ph)(phen)(H2O)2]]",15.6,234.51,35.8,539,< 0.19,< 0.44,0.57,1.31,0,80,90,90,6th,6th,water-insoluble,,
"O.O.O.O.O.O=C([O-])c1ccccc1C(=O)[O-].[Mn+2].c1cnc2c(c1)ccc1cccnc12.c1cnc2c(c1)ccc1cccnc12 [compound 6, [Mn(ph)(phen)2(H2O)]·4H2O]",11.7,259.34,17.5,387,0.38,0.57,1.42,2.12,0,80,90,90,7th,5th,water-insoluble,,
"O.O.O.O.O=C([O-])c1cccc(C(=O)[O-])c1.O=C([O-])c1cccc(C(=O)[O-])c1.[Mn+2].[Mn+2].c1cnc2c(c1)ccc1cccnc12.c1cnc2c(c1)ccc1cccnc12.c1cnc2c(c1)ccc1cccnc12 [compound 7, [Mn2(isoph)2(phen)3]·4H2O]",125,255.87,119,244,,,1.56,1.48,0,60,80,90,4th,3rd,water-insoluble,,
"O.O.O.O.O.O.O.O.O.O.O.O.O.O.O.O.O=C([O-])c1cccc(C(=O)[O-])c1.O=C([O-])c1cccc(C(=O)[O-])c1.[Mn+2].[Mn+2].c1cnc2c(c1)ccc1cccnc12.c1cnc2c(c1)ccc1cccnc12.c1cnc2c(c1)ccc1cccnc12.c1cnc2c(c1)ccc1cccnc12.c1cnc2c(c1)ccc1cccnc12 [compound 8, {[Mn(phen)2(H2O)2]}2(isoph)2(phen)·12H2O]",46.9,251.76,28.8,155,,,3.01,1.85,0,80,90,90,9th,5th,water-insoluble,~3,
"O.O.O.O.O.O=C([O-])c1ccc(C(=O)[O-])cc1.[Mn+2].c1cnc2c(c1)ccc1cccnc12.c1cnc2c(c1)ccc1cccnc12 [compound 9, [Mn(tereph)(phen)2]·5H2O]",46.9,251.94,70,376,0.38,0.57,3.41,5.09,0,80,90,90,7th,5th,water-insoluble,,
[Cu2(oda)(phen)4](ClO4)2·2.76H2O·EtOH [compound 2],11.7,0.98,8.94,,1.50,1.15,16.60,12.68,0,50,90,90,3rd,2nd,water-soluble,,
[Mn2(oda)(phen)4(H2O)2][Mn2(oda)(phen)4(oda)2]·4H2O [compound 1],375,> 512,153,> 208,,,1.15,0.47,0,40,90,90,1st,1st,water-soluble,~3,3
"{[Cu(3,6,9-tdda)(phen)2]·3H2O·EtOH}n [compound 4]",5.85,1.06,7.86,1.42,0.75,1.01,10.03,13.48,0,80,90,90,8th,6th,water-soluble,,
